From patent US20200291018A1, “TAM KINASE INHIBITORS” (SYROS PHARMACEUTICALS, INC., priority 2017, published 2020)
pIC50: −log10 of the molar value.

Columns and labels:
MERTK = molecular target: T1, MERTK (Homo sapiens, UniProt Q12866); assay: TR-FRET kinase activity assay, MERTK; format: biochemical; settings: for pIC50: TR-FRET activity assay, ATP at Km, 60 minutes, read-out: Mer IC50; for Mer/Flt3 ratio (FLT3 IC50/Mer IC50): ratio calculated as FLT3 IC50/Mer IC50
T1 sequence (Q12866 21-999): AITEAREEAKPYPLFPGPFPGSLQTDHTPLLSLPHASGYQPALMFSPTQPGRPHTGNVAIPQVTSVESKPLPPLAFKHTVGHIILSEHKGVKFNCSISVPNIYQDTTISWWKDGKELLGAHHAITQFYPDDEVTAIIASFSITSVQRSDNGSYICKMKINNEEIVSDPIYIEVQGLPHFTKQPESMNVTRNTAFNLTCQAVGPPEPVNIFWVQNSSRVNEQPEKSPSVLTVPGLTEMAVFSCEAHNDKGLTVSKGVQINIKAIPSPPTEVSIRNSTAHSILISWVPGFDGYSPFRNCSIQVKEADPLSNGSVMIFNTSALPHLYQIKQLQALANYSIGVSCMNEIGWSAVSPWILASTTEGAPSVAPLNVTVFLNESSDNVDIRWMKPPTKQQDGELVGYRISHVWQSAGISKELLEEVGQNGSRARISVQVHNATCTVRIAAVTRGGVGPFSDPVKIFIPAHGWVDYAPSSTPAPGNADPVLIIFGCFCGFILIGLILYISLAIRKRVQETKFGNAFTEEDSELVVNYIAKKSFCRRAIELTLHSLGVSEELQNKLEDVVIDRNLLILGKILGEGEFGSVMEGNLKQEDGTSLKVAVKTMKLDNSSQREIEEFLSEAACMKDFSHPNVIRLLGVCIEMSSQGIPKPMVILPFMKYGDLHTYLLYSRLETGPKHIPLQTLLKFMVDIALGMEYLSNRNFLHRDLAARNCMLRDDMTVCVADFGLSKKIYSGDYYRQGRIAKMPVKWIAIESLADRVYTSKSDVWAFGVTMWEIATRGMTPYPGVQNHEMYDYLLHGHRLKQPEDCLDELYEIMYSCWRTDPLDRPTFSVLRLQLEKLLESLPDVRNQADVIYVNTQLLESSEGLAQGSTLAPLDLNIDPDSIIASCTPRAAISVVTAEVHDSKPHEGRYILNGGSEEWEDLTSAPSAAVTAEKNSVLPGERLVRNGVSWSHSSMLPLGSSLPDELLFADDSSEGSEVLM
Outline: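 IC50 came from TR-FRET signal after 30 min dark development with a Europium-labeled phospho-specific antibody. This followed a 60 min RT reaction, stopped with EDTA, started with ATP at Km per enzyme. Peptide substrate, enzyme and compound were premixed in HEPES pH 7.5 buffer with MgCl2, EGTA, Brij 35 and DTT.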

TYRO3 = molecular target: T2, TYRO3 (Homo sapiens, UniProt Q06418); assay: TR-FRET kinase activity assay, TYRO3; format: biochemical; settings: ATP at Km, 60 minutes
T2 sequence (Q06418 41-890): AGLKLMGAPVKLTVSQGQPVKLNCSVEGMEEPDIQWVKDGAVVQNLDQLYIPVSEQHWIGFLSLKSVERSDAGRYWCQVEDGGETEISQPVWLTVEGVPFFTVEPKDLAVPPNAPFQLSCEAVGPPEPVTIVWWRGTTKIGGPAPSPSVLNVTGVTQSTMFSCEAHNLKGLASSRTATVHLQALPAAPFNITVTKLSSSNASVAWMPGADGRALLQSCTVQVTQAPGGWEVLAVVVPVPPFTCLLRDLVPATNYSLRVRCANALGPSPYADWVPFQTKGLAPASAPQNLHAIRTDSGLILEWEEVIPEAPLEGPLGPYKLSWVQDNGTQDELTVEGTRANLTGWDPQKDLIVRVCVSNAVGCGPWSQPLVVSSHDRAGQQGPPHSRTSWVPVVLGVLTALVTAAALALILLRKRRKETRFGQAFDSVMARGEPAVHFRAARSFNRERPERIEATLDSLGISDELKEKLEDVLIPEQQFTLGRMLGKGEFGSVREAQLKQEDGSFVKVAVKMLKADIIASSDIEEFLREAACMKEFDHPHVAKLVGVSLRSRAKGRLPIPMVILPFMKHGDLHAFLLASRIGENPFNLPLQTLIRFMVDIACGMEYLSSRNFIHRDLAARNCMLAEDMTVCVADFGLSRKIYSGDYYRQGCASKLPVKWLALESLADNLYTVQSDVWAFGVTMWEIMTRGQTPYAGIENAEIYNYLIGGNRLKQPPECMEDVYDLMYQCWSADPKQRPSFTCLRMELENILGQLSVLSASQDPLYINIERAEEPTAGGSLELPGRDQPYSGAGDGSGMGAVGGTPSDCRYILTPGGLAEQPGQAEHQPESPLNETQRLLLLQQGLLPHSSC
Procedure: IC50 values for compound inhibition of AXL, FLT3, MERTK and TYRO3 activity were determined using a TR-FRET activity assay. A peptide substrate with a fluorescent label is phosphorylated on a tyrosine by each enzyme, where the now phosphorylated product is bound by a Europium-labeled antibody specific to that phosphorylation site. The proximity between the antibody and the substrate gives a signal known as TR-FRET. As the enzyme is inhibited by compound, less phosphorylated peptide product is made, causing a decrease in overall signal.
Activity assays were performed in a 384-well, small volume, black microplates in an active enzyme volume of 10 uL and final developed volume of 20 uL. Final assay conditions are 50 mM HEPES pH 7.5, 10 mM MgCl2, 1 mM EGTA, 0.01% Brij 35 and 1 mM DTT, all at RT. Enzyme, substrate-labeled peptide and compound are mixed, and then the reaction is initiated with the addition of ATP at Km concentration for each enzyme. The reaction is allowed to run 60 minutes and then quenched with a 12.5 mM EDTA (ethylenediamine tetraacetic acid) solution. The plate is then developed with the addition of Europium-labeled antibody for a final volume of 20 uL and is then incubated for 30 minutes in darkness. Plates are read in a PHERASTAR® plate reader. Data are analyzed in GraphPad PRISM.

| Structure (SMILES) | pIC50 (MERTK) | Mer/Flt3 ratio (FLT3 IC50/Mer IC50) (MERTK) | pIC50 (TYRO3) |
| --- | --- | --- | --- |
| CC[C@H](C)Nc1ncc2c(=O)n(CC34CCC(O)(CC3)CC4)cc([C@H]3CC[C@H](O)CC3)c2n1 [Compound 257] | ≥ 7.00 | +++ (a ratio of >100) | ≥ 7.00 |
| O[C@H]1CC[C@H](c2cnc(OC3CCNCC3)c3cnc(Nc4ccccc4F)nc32)CC1 [Compound 262] | ≥ 7.00 | ++ (a ratio of between 10 and 100) | ≥ 7.00 |
| CC[C@H](C)Nc1ncc2c(=O)n(CC34CCC(N(C)C)(CC3)CC4)cc([C@H]3CC[C@H](O)CC3)c2n1 [Compound 264] | ≥ 7.00 | +++ (a ratio of >100) | ≥ 7.00 |
| O[C@H]1CC[C@H](c2cnc(OC3CCNCC3)c3cnc(Nc4ccc(F)cc4)nc32)CC1 [Compound 269] | ≥ 7.00 | + (a ratio of >2.0 and <10) | ≥ 7.00 |
| O[C@H]1CC[C@H](c2cnc(OC3CCNCC3)c3cnc(Nc4cccc(F)c4)nc32)CC1 [Compound 270] | ≥ 7.00 | + (a ratio of >2.0 and <10) | ≥ 7.00 |
| COC(=O)c1ccc(Nc2ncc3c(OC4CCNCC4)ncc([C@H]4CC[C@H](O)CC4)c3n2)cc1 [Compound 272] | ≥ 7.00 | + (a ratio of >2.0 and <10) | ≥ 7.00 |
| CC(C)Nc1ncc2c(OC3CCOCC3)ncc(-c3cccc(CC#N)c3)c2n1 [Compound 274] | ≥ 7.00 | ++ (a ratio of between 10 and 100) | 6.00 to 7.00 |
| CC(C)Nc1ncc2c(OC3CCOCC3)ncc(-c3cccc(CC(=O)O)c3)c2n1 [Compound 276] | 5.00 to 6.00 | ++ (a ratio of between 10 and 100) | 6.00 to 7.00 |
| O[C@H]1CC[C@H](c2cnc(OC3CCOCC3)c3cnc(N[C@H]4CCNC4)nc32)CC1 [Compound 277] | 5.00 to 6.00 | NS (a ratio of ≤2.0) | 5.00 to 6.00 |

Now from value to molecule:

| pIC50 (MERTK) | Mer/Flt3 ratio (FLT3 IC50/Mer IC50) (MERTK) | pIC50 (TYRO3) | Structure (SMILES) |
| --- | --- | --- | --- |
| 5.00 to 6.00 | + (a ratio of >2.0 and <10) | 5.00 to 6.00 | CCOc1ncc(CC2CCN(C(=O)OC(C)(C)C)CC2)c2nc(N[C@@H](C)CC)ncc12 [Compound 254] |
| ≥ 7.00 | +++ (a ratio of >100) | ≥ 7.00 | CC[C@H](C)Nc1ncc2c(C)ncc([C@H]3CC[C@H](O)CC3)c2n1 [Compound 255] |
| ≥ 7.00 | +++ (a ratio of >100) | 6.00 to 7.00 | CC[C@H](C)Nc1ncc2c(OCC34CCC(O)(CC3)CC4)ncc([C@H]3CC[C@H](O)CC3)c2n1 [Compound 256] |
| ≥ 7.00 | +++ (a ratio of >100) | ≥ 7.00 | COC[C@H](C)Nc1ncc2c(OC3CC(C)(C)N(C)C(C)(C)C3)ncc([C@H]3CC[C@H](O)CC3)c2n1 [Compound 259] |
| ≥ 7.00 | +++ (a ratio of >100) | ≥ 7.00 | COC[C@H](C)Nc1ncc2c(O[C@H]3CC[C@H](O)CC3)ncc([C@H]3CC[C@H](O)CC3)c2n1 [Compound 260] |
| ≥ 7.00 | ++ (a ratio of between 10 and 100) | 6.00 to 7.00 | CC[C@H](C)Nc1ncc2c(O[C@H]3CC[C@H](C(C)(C)O)CC3)ncc([C@H]3CC[C@H](O)CC3)c2n1 [Compound 261] |
| ≥ 7.00 | +++ (a ratio of >100) | 6.00 to 7.00 | CC[C@H](C)Nc1ncc2c(=O)n(C[C@@H]3COCCN3C)cc([C@H]3CC[C@H](O)CC3)c2n1 [Compound 263] |
| ≥ 7.00 | +++ (a ratio of >100) | 6.00 to 7.00 | CC[C@H](C)Nc1ncc2c(=O)n(C[C@H]3COCCN3C)cc([C@H]3CC[C@H](O)CC3)c2n1 [Compound 265] |
| ≥ 7.00 | +++ (a ratio of >100) | ≥ 7.00 | CC[C@H](C)Nc1ncc2c(=O)n([C@H]3CC[C@H](N(C)C)C3)cc([C@H]3CC[C@H](O)CC3)c2n1 [Compound 266] |
| ≥ 7.00 | +++ (a ratio of >100) | ≥ 7.00 | CC[C@H](C)Nc1ncc2c(O[C@H]3CC[C@H](N(C)C)C3)ncc([C@H]3CC[C@H](O)CC3)c2n1 [Compound 267] |
| ≥ 7.00 | +++ (a ratio of >100) | 6.00 to 7.00 | CC(C)(C)Nc1ncc2c(OC3CCNCC3)ncc([C@H]3CC[C@H](O)CC3)c2n1 [Compound 268] |
| ≥ 7.00 | +++ (a ratio of >100) | 6.00 to 7.00 | CC[C@H](C)Nc1ncc2c(=O)n(-c3ccc(N)cc3)cc([C@H]3CC[C@H](O)CC3)c2n1 [Compound 271] |
| ≥ 7.00 | +++ (a ratio of >100) | 6.00 to 7.00 | CCOc1ncc([C@H]2CC[C@H](O)CC2)c2nc(N[C@@H](C)COC)ncc12 [Compound 273] |
| ≥ 7.00 | +++ (a ratio of >100) | 6.00 to 7.00 | CC[C@H](C)Nc1ncc2c(OC3C[C@@H](C)O[C@@H](C)C3)ncc([C@H]3CC[C@H](O)CC3)c2n1 (stereo partly drawn) [Compound 275] |
